The text below walks through data of US12059425B2, “Heterocyclic compounds and uses thereof” (Kumquat Biosciences Inc., priority 2022, dated 2024).

As a reminder, the IC50 is the point on the concentration scale where inhibition reaches its midpoint.

The target of one experiment is T1, K-Ras G12D (Homo sapiens, UniProt P01116, G12D).
T1 construct: made in house; host or cells: E. coli, e.g. BL21 (DE3)
Briefly: PPI-HTRF assay, K-Ras G12D / SOS1 interaction. The format is biochemical. As to conditions: HTRF, K-Ras G12D; read-out: PPI-HTRF-5 nM (K-Ras G12D IC50). The essentials: (§1)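 Compounds were tested in duplicate (10 μM to 0.01 μM) for disruption of Ras–SOS1 binding, measured as FRET between anti-GST-Eu on GST-K-Ras and anti-6His-XL665 on His-hSOS1. The buffer was HEPES pH 7.4 with NaCl, DTT, BSA and Igepal. Emission ratios (665/620 nm, excitation 337 nm) read after ≥10 min gave IC50 values.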
On the technique in general: TR-FRET usually uses a lanthanide donor and a delayed reading to cut background.

The next experiment relates to A549 cells. Briefly: Ras cellular assay, cell proliferation A549. Format: cell-based. As to conditions: Homo sapiens. The essentials: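 G12S-mutant A549 cells (800/well) in RPMI-1640 plus 10% heat-inactivated FBS, standard or ultra-low attachment 384-well plates, dosed the day after plating with a 10-point 3-fold series. Viability by CellTiter-Glo luminescence about 6 days later; IC50 from four-parameter fit.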

For a further experiment, the target named is T2, K-Ras G12S (Homo sapiens, UniProt P01116, G12S).
T2 construct: made in house; host or cells: E. coli, e.g. BL21 (DE3)
Briefly: PPI-HTRF assay, K-Ras G12S / SOS1 interaction. The format is biochemical. As to conditions: read-out: PPI-HTRF-5 nM (K-Ras G12S IC50). The essentials:
as §1

A further experiment concerns GP2D cells. Briefly: Ras cellular assay, cell proliferation GP2D. The format is cell-based. The essentials:
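GP2D cells (G12D Ras mutant) seeded (e.g., 800/well) and treated the next day with a dilution series (e.g., 9-point, 3-fold). After approximately 5 days, viability measured by CellTiter-Glo luminescence; IC50 from four-parameter fit.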

A further experiment addresses T3, K-Ras G12V (Homo sapiens, UniProt P01116, G12V).
T3 construct: made in house; host or cells: E. coli, e.g. BL21 (DE3)
Description: PPI-HTRF assay, K-Ras G12V / SOS1 interaction. As to conditions: HTRF, K-Ras G12V; read-out: PPI-HTRF-5 nM (K-Ras G12V IC50). Format: biochemical. The essentials:
as §1

Another experiment has as its system SW620 cells. Description: Ras cellular assay, cell proliferation SW620. Format: cell-based. The settings on record: Homo sapiens, SW-620. From the text:
For example, this assay can be also used to assess selective growth inhibition of a mutant Ras protein relative to a wildtype, or relative to a different mutant Ras protein.

A further experiment has as its target T4, wildtype K-Ras (Homo sapiens, UniProt P01116).
T4 construct: made in house; host or cells: E. coli, e.g. BL21 (DE3)
Description: PPI-HTRF assay, wildtype K-Ras / SOS1 interaction. Format: biochemical. The settings on record: HTRF, K-Ras wt; read-out: PPI-HTRF-5 nM (K-Ras wt IC50). The essentials: as §1

T4 sequence (P01116 1-188 isoform P01116-2): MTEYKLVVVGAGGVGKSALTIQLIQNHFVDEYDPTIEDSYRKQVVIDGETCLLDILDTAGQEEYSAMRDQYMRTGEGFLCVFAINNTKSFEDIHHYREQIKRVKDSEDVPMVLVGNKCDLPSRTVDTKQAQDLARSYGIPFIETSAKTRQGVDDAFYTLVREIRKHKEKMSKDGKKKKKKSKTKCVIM
T2 sequence (P01116 1-188 isoform P01116-2 G12S): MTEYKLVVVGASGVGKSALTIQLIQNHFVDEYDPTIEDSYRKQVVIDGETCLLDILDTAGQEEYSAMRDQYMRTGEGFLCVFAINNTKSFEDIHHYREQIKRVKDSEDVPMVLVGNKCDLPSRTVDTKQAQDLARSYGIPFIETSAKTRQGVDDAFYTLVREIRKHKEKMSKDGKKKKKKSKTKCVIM
T3 sequence (P01116 1-188 isoform P01116-2 G12V): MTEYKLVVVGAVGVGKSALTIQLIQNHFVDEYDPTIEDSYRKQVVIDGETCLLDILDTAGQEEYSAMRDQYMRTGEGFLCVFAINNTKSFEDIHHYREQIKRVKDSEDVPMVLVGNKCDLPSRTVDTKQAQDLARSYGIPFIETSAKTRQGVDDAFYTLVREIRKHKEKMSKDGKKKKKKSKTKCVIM
T1 sequence (P01116 1-188 isoform P01116-2 G12D): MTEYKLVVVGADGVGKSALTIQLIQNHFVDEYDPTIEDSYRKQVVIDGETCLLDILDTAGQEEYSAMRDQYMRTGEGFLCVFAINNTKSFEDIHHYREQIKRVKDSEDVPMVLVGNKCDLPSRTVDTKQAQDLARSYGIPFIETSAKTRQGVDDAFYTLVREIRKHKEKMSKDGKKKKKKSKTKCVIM

Take `CCN1c2nc(OC[C@@]34CCCN3C[C@H](F)C4)nc3c(F)c(-c4ccc(F)c5sc(N)c(C#N)c45)c(Cl)c(c23)OCC2COCC21` (stereo partly drawn) [compound 186, 2-amino-4-(6-chloro-12-ethyl-4-fluoro-2-(((2R,7aS)-2-fluorotetrahydro-1H-pyrrolizin-7a(5H)-yl)methoxy)-8a,9,11a,12-tetrahydro-8H,11H-furo[3′,4′:6,7][1,5]oxazocino[4,3,2-de]quinazolin-5-yl)-7-fluorobenzo[b]thiophene-3-carbonitrile]: the IC50 on K-Ras G12D, in the experiment with A549 cells, at K-Ras G12S, with GP2D cells, at K-Ras G12V and in the experiment on SW620 cells was less than 5 µM throughout. Moreover, the IC50 on wildtype K-Ras was less than 5 µM.
For `N#Cc1c(N)sc2c(F)ccc(-c3c(Cl)c4c5c(nc(OC[C@@]67CCCN6C[C@H](F)C7)nc5c3F)N3C(CO)CCC3CO4)c12` (stereo partly drawn) [compound 185, 2-amino-4-(6-chloro-4-fluoro-2-(((2R,7aS)-2-fluorotetrahydro-1H-pyrrolizin-7a(5H)-yl)methoxy)-11-(hydroxymethyl)-8a,9,10,11-tetrahydro-8H-pyrrolo[2′,1′:3,4][1,4]oxazepino[5,6,7-de]quinazolin-5-yl)-7-fluorobenzo[b]thiophene-3-carbonitrile], the IC50 at K-Ras G12D, in the experiment with A549 cells, at K-Ras G12S, in the experiment on GP2D cells, on K-Ras G12V and in the experiment with SW620 cells was less than 5 µM in each case. Moreover, the IC50 at wildtype K-Ras was less than 5 µM.
For `CN1c2nc(OC[C@@]34CCCN3C[C@H](F)C4)nc3c(F)c(-c4ccc(F)c5sc(N)c(C#N)c45)c(Cl)c(c23)OCC2CN(C(=O)[C@@H]3N[C@H]3C3CC3)CC21` (stereo partly drawn) [compound 146, 2-amino-4-(6-chloro-10-((2R,3S)-3-cyclopropylaziridine-2-carbonyl)-4-fluoro-2-(((2R,7aS)-2-fluorotetrahydro-1H-pyrrolizin-7a(5H)-yl)methoxy)-12-methyl-8a,9,10,11,11a,12-hexahydro-8H-pyrrolo[3′,4′:6,7][1,5]oxazocino[4,3,2-de]quinazolin-5-yl)-7-fluorobenzo[b]thiophene-3-carbonitrile], the IC50 at K-Ras G12D was less than 5 µM; in the experiment on A549 cells, more than 5 µM; at K-Ras G12S, less than 5 µM; with GP2D cells, less than 5 µM; at K-Ras G12V it was less than 5 µM; in the experiment with SW620 cells it was less than 5 µM. In addition, the IC50 on wildtype K-Ras is less than 5 µM.
For `N#Cc1c(N)sc2c(F)ccc(-c3c(Cl)c4c5c(nc(OCC67CCCN6C[C@H](F)C7)nc5c3F)N3CC(CO)CCC3CO4)c12` (stereo partly drawn) [compound 215, 2-amino-4-(6-chloro-4-fluoro-2-(((2R)-2-fluorotetrahydro-1H-pyrrolizin-7a(5H)-yl)methoxy)-11-(hydroxymethyl)-8,8a,9,10,11,12-hexahydropyrido[2′,1′:3,4][1,4]oxazepino [5,6,7-de]quinazolin-5-yl)-7-fluorobenzo[b]thiophene-3-carbonitrile], the IC50 on K-Ras G12D, in the experiment with A549 cells, on K-Ras G12S, in the experiment with GP2D cells, on K-Ras G12V and in the experiment with SW620 cells was less than 5 µM throughout. For the same compound, the IC50 on wildtype K-Ras was less than 5 µM.
As to `N#Cc1c(N)sc2c(F)ccc(-c3c(Cl)c4c5c(nc(OC[C@@]67CCCN6C[C@H](F)C7)nc5c3F)N3CC(F)(F)C[C@H]3CO4)c12` [compound 181], the IC50 on K-Ras G12D, with A549 cells, on K-Ras G12S, in the experiment on GP2D cells, on K-Ras G12V and in the experiment on SW620 cells was less than 5 µM throughout. The IC50 on wildtype K-Ras was less than 5 µM.
For the compound `N#Cc1c(N)sc2c(F)ccc(-c3c(Cl)c4c5c(nc(OC[C@@]67CCCN6C[C@H](F)C7)nc5c3F)N3CCCC[C@@H]3CCO4)c12` [compound 196, 2-amino-4-((6aR)-3-chloro-1-fluoro-13-(((2R,7aS)-2-fluorotetrahydro-1H-pyrrolizin-7a(5H)-yl)methoxy)-6,6a,7,8,9,10-hexahydro-5H-pyrido[11,2′:5,6][1,5]oxazocino[4,3,2-de]quinazolin-2-yl)-7-fluorobenzo[b]thiophene-3-carbonitrile], the IC50 on K-Ras G12D, in the experiment on A549 cells, at K-Ras G12S, in the experiment on GP2D cells, on K-Ras G12V and with SW620 cells was less than 5 µM each time. On wildtype K-Ras, the IC50 was less than 5 µM.
Take `N#Cc1c(N)sc2c(F)ccc(-c3c(Cl)c4c5c(nc(OCC67CCCN6C[C@H](F)C7)nc5c3F)N3CCCCCC3CO4)c12` (stereo partly drawn) [compound 193, 2-amino-4-(3-chloro-1-fluoro-13-(((2R,7aS)-2-fluorotetrahydro-1H-pyrrolizin-7a(5H)-yl)methoxy)-5a,6,7,8,9,10-hexahydro-5H-azepino[2′,1′:3,4][1,4]oxazepino[5,6,7-de]quinazolin-2-yl)-7-fluorobenzo[b]thiophene-3-carbonitrile]: the IC50 at K-Ras G12D, in the experiment with A549 cells, on K-Ras G12S, in the experiment on GP2D cells, at K-Ras G12V and in the experiment on SW620 cells was less than 5 µM in each case. Moreover, the IC50 on wildtype K-Ras is less than 5 µM.
`CN1c2nc(OC[C@@]34CCCN3C[C@H](F)C4)nc3c(F)c(-c4ccc(F)c5sc(N)c(C#N)c45)c(Cl)c(c23)OCC2CN(C(=O)C(F)F)CC21` (stereo partly drawn) [compound 120, 2-amino-4-(6-chloro-10-(2,2-difluoroacetyl)-4-fluoro-2-(((2R,7aS)-2-fluorotetrahydro-1H-pyrrolizin-7a(5H)-yl)methoxy)-12-methyl-8a,9,10,11,11a,12-hexahydro-8H-pyrrolo[3′,4′:6,7][1,5]oxazocino[4,3,2-de]quinazolin-5-yl)-7-fluorobenzo[b]thiophene-3-carbonitrile]: the IC50 on K-Ras G12D is less than 5 µM; in the experiment on A549 cells it was more than 5 µM; on K-Ras G12S, less than 5 µM; in the experiment with GP2D cells, less than 5 µM; at K-Ras G12V, less than 5 µM; with SW620 cells it was less than 5 µM. On wildtype K-Ras, the IC50 is less than 5 µM.
As for `COC1CCC2COc3c(Cl)c(-c4ccc(F)c5sc(N)c(C#N)c45)c(F)c4nc(OC[C@@]56CCCN5C[C@H](F)C6)nc(c34)N2C1` (stereo partly drawn) [compound 182, 2-amino-4-(6-chloro-4-fluoro-2-(((2R,7aS)-2-fluorotetrahydro-1H-pyrrolizin-7a(5H)-yl)methoxy)-11-methoxy-8,8a,9,10,11,12-hexahydropyrido[2′,1′:3,4][1,4]oxazepino [5,6,7-de]quinazolin-5-yl)-7-fluorobenzo[b]thiophene-3-carbonitrile], the IC50 on K-Ras G12D, in the experiment with A549 cells, on K-Ras G12S, with GP2D cells, at K-Ras G12V and in the experiment on SW620 cells was less than 5 µM each time. For the same compound, at wildtype K-Ras, the IC50 is less than 5 µM.
